From patent US20230099264A1, “Biomarker for Predicting Prognosis of Radiotherapy for Lung Cancer” (Korea Institute of Radiological & Medical Sciences, priority 2020, published 2023) come the findings set out here.

Common to all, as to assay type: cell-based, Human
The subject of test [1] is IR-treated lung cancer cell line A549. The test is described as follows: Transwell invasion and migration assay of IR-treated lung cancer cells. As to conditions: IR (10 Gy)-treated A549, transwell, 24 hours. On the procedure: Lung cancer cells (A549) (5×10^5) were seeded in 60 mm dishes and cultured overnight, followed by IR exposure (10 Gy) using a 137 Cs radiation source (Atomic Energy of Canada, Ltd., Mississauga, ON, Canada) to obtain IR-treated lung cancer cell lines (A549 IR (10 Gy)).
In order to analyze the cell invasion of lung cancer cells by IR treatment, Matrigel-coated transwells (Corning N. Y., USA) were used, and in order to analyze cell migration, collagen-coated transwells (Corning, N.Y., USA) were used.
Lung cancer cell line A549 (control) and IR-treated lung cancer cell line A549 (IR) were placed in an upper chamber by 5×10^4 in a Matrigel-coated transwell, and treated with EGFR, Scr, and STAT3 inhibitors, respectively. Then, 10% FBS medium was put into the lower chamber, and cells passing through the transwell were stained after 24 hours to confirm cell invasion, and the results are shown in […].
Lung cancer cell line A549 (control) and IR-treated lung cancer cell line A549 (IR) were placed in an upper chamber by 5×10^4 in a Matrigel-coated transwell and treated with necrostatin. Then, 10% FBS medium was put into the lower chamber, and cells passing through the transwell were stained after 24 hours to confirm cell invasion, and the results are shown in FIGS. 4A and 4B. […]

Test [2] has the same test system. The test is described as follows: Cell viability of IR-treated lung cancer cells under inhibitor treatment.
The subject of test [3] is RIP1. The test is described as follows: Western blot of RIP1 expression in IR-treated A549 cells. As to conditions: 24 hours. How it is done:
In addition, lung cancer cell line A549 (control) and IR-treated lung cancer cell line A549 (IR) were seeded at 1×10^6 in a 60π dish and treated with EGFR inhibitor (EGFR inh), Src inhibitor (Src inh), and STAT3 inhibitor (STAT3 inh). The cells were treated by IR (IR-EGFR inh, IR-Src inh, and IR-STAT3 inh). The cells were harvested 24 hours later, and protein was extracted.
(§1) In addition, lung cancer cell line A549 (control) and IR-treated lung cancer cell line A549 (IR) were seeded at 1×10^6 in a 60π dish and treated with necrostatin. The cells were harvested 24 hours later, and protein was extracted. Then, Western blot was performed to confirm the expressions of RIP1, vimentin, MMP2, MMP9, p-EGFR, EGFR, β-action, p-Src, Src, p-STAT3, and STAT3, and the results are shown in FIGS. 4D and 4E.
In addition, lung cancer cell line A549 (control) and IR-treated lung cancer cell line A549 (IR) were seeded with 1×10^6 in a 60π dish and were treated with an NF-κB inhibitor. The cells were harvested 24 hours later, and protein was extracted. Then, Western blot was performed to confirm the expressions of RIP1, vimentin, MMP2, MMP9, p-IκBα, p-P65, p50, and p105.
For orientation: In western blotting, separated proteins are transferred to a membrane and probed.

Test [4] relates to vimentin, MMP2, MMP9, p-EGFR, p-Src, p-STAT3. Nature of the test: Western blot of EMT-related and signaling proteins in IR-treated A549 cells. As to conditions: 24 hours. How it is done:
In addition, lung cancer cell line A549 (control) and IR-treated lung cancer cell line A549 (IR) were seeded at 1×10^6 in a 60π dish and treated with EGFR inhibitor (EGFR inh), Src inhibitor (Src inh), and STAT3 inhibitor (STAT3 inh). The cells were treated by IR (IR-EGFR inh, IR-Src inh, and IR-STAT3 inh). The cells were harvested 24 hours later, and protein was extracted. Then, Western blot was performed to confirm the expressions of RIP1, vimentin, MMP2, MMP9, p-Src, Src, p-STAT3, STAT3, and β-action, and the results are shown in FIG. 3B (EGFR inhibitor), FIG. 3C (Src inhibitor), and FIG. 3D (STAT3 inhibitor).
as §1
In addition, the same experiment as the above experiment was performed by treating a commercially available siRNA capable of inhibiting the expression of RIP1, and the results are shown in FIGS. 5A-5D.

The subject of test [5] is vimentin, MMP-2/9, E-cadherin. The test is described as follows: Immunoblot analysis of EMT markers with or without IL-Ra under IR irradiation. How it is done: Immunoblot analysis of samples treated with or without IL-Ra (an antagonist of IL-1β) under IR irradiation conditions was performed, and the results are shown in FIG. 8A.

For the compound `CN1C(=O)C(Cc2c[nH]c3ccccc23)NC1=S` (stereo not drawn) [necrostatin, Necrostatin-1], the “cell invasion and cell migration” value in test [1] is “reduced”. The “cell viability compared with lung cancer cell line not treated with radiation (control)” value in test [2] was “almost similar”. Besides, the RIP1 expression entry in test [3] is recorded as “decreased expression”. In test [4], the “activities/expression of vimentin, MMP2, MMP9, p-EGFR, p-Src, p-STAT3 (EMT-related factors)” value is recorded as “decreased activities”.

For the compound IL-Ra: an antagonist of IL-1β, the “cell invasion and cell migration” value in test [1] was “almost completely blocked”. Further, the “IR-induced increase of vimentin and MMP-2/9 expressions and decrease of E-cadherin” value in test [5] is recorded as “inhibiting this action”.
